In article PMC5062570 (Nature Communications, 2016):
Entries after “also recorded” stand apart in the source; their conditions may differ. Where two headings read alike, the source gives them in different places.

Tests used:
[1] = tested on: retinal pigment epithelium (RPE); parameters: method as in PMID 22090477, PMID 25361751; conditions: cited from earlier work
[2] = tested on: retinal pigment epithelium (RPE); test: Exploratory toxicology, ocular toxicity by retinal histology in rats; format: in vivo; conditions: for Female ocular toxicity incidence (positive or negative animals / total evaluated) / Female ocular toxicity outcome / Male ocular toxicity incidence (positive or negative animals / total evaluated) / Male ocular toxicity outcome: rat; for Ocular toxicity: 29-day studies with high daily doses
Experimental: (§1) Wistar Han rats (obtained from Charles River, 125–300 g, 6–9 weeks old at study start, see Supplementary Table 7 for number of males and females) received daily oral dosing of test compounds or vehicle at the indicated concentrations for 7–29 days as indicated. The doses were prepared in a solution of 0.5% methylcellulose and 0.2% polysorbate 80, or 0.5% methylcellulose and hydroxypropyl methylcellulose acetate succinate (high fine grade) and delivered in a volume of 10 ml kg^−1 per day. Blood samples for bioanalytical analysis were collected in K2EDTA tubes via jugular vessel. Plasma was isolated after centrifugation and stored at −20 °C prior to analysis. Animals were given an additional dose the day after the end of the study (days 8, 15 or 30 for 7, 14 and 29 day studies, respectively) then killed by gas anaesthesia (isoflurane) followed by exsanguination ∼3 h after this final dose.

[3] = Plasma exposure (average unbound plasma concentration) in rats; format: in vivo, rat; conditions: Wistar Han, oral, rat, 29 days, average unbound plasma concentration, read-out: Avg Cp,u parent
Experimental: as §1
Plasma samples were analysed after protein precipitation by treating 20 μl of sample matrix with 200 μl of acetonitrile containing internal standard. All samples were centrifuged at 3,000 r.p.m. for 5 min. Then 100 μl of supernatant was transferred to a clean plate and evaporated to dryness under N2. Samples were reconstituted in 200 μl of 80:20 (v:v) acetonitrile:water. Samples were analysed on Waters Acquity UPLC connected to AB Sciex API5500 QTrap MS/MS.
Plasma protein binding was determined in the Rapid Equilibrium Device (RED, Thermo Scientific). Frozen plasma was warmed to 37 °C and adjusted to pH 7.4. The plasma was spiked with compound to a final concentration of 2 μM. Aliquots of spiked plasma were added to the donor (red) side, followed by addition of buffer to the receiver (white) side. The RED device was covered with a gas-permeable membrane and agitated within a humidified CO2 incubator (5% CO2, 75% relative humidity). Plasma (15 μl) and buffer (45 μl) were sampled from each insert and were matrix-matched with appropriate blank matrix (plasma with 45 μl buffer and buffer with 15 μl of plasma). Samples were protein-precipitated with acetonitrile containing internal standard, and the resulting supernatant was analysed by LC-MS/MS.

CatD [4] = target: T1, CatD (Homo sapiens, UniProt P07339); test: CatD purified enzyme fluorescence polarization assay; format: biochemical; parameters: final maturation into a non-covalently associated heavy chain and light chain; purchased Sigma C8696; host or cells: human liver; conditions: for IC50: purified human enzyme, fluorescence polarization, substrate-based
Experimental: (§2) Purified enzyme inhibition of BACE1, BACE2, CatD and CatE was determined using fluorescence polarization (FP) assays. Briefly, purified enzymes were treated with test compounds (1% DMSO, 37 °C) in the presence of synthetic peptide substrates (150 nM) in 30 μl total volume of NaOAc buffer (100 mM, pH 4.5, 0.0001% Tween-20) in a 384-well plate. After incubation, reactions were stopped and substrate captured by the addition of 1.5 μM streptavidin, and FP measured with an EnVision plate reader (PerkinElmer, excitation 485 nm, emission 530 nm). […] BACE2 activity was assessed with 0.5 nM recombinant BACE2 (R&D Systems 4097-AS) and the same synthetic substrate used for BACE1, with a 1 h incubation time. […] CatE activity was assessed with 1.0 nM recombinant CatE (Creative BioMart CTSE-255H) and the same synthetic substrate used for CatD, with a 1.5 h incubation time.
Target sequence in this assay (P07339 65-162 limits assumed): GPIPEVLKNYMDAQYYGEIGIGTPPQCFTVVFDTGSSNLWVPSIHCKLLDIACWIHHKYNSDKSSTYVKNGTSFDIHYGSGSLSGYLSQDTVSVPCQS
Target sequence in this assay (P07339 169-412 limits assumed): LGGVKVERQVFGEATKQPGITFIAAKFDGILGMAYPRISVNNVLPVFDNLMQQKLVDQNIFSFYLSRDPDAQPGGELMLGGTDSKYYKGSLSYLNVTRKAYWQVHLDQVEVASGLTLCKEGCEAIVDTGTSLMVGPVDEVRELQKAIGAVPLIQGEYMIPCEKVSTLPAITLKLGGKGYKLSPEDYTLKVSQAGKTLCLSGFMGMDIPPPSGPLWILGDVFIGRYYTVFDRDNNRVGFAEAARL

BACE1 [5] = target: T2, BACE1 (Homo sapiens, UniProt P56817); test: BACE1 biochemical cellular assay (sAPPβ ELISA in H4 cells overexpressing APP695); format: cell-based; parameters: endogenous in cells; host or cells: H4 human neuroglioma cells overexpressing human APP695; conditions: for BACE1 potency increase in live cells: BACE1 enzyme IC50 versus BACE1 cellular IC50; for IC50: sAPPβ ELISA, H4 neuroglioma cells with human wild-type APP
Experimental: Cellular inhibition of BACE1 was determined by measuring sAPPβ, the primary cleavage product of BACE-1, in H4 human neuroglioma cells overexpressing the wild-type human APP695. […] The colorimetric reaction was read by an EnVision plate reader (PerkinElmer).
Target sequence in this assay (P56817 46-501): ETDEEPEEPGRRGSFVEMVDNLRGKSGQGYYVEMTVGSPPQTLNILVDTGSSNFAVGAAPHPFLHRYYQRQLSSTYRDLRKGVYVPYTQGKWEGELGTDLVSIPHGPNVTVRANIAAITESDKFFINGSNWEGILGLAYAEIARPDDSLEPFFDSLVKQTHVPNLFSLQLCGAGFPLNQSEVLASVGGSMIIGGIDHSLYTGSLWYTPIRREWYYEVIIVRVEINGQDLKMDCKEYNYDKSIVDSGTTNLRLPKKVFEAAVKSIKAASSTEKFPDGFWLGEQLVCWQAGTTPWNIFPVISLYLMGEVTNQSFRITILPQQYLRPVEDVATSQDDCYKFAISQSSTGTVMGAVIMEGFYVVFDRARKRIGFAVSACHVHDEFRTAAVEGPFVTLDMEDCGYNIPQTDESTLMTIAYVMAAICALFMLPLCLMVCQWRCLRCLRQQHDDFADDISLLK

CatD [6] = conditions: read-out: IC50 against purified CatD in vitro; cited from earlier work
[7] = pKa determination by multiplexed capillary electrophoresis; format: physicochemical; conditions: aqueous buffers
Experimental: All pKa values were determined at Analiza, Inc. by multiplexed capillary electrophoresis (mCE) using 96-capillary array electrophoresis instrument to measure the effective mobility (migration time of the compound in relation to neutral marker, DMSO) with ultraviolet detection. The pKa values were obtained from the ionization curves by plotting the compound effective mobility (24 points across pH range 1.7–11.2) versus pH. All pKa results were determined using aqueous buffers with method average absolute error 0.12.

CatD [8] = target: T1, CatD; test: CatD cellular assay (competition of PF-7802 photolabelling in live ARPE-19 cells); format: cell-based; parameters: host or cells: ARPE-19; conditions: for CatD potency increase in live cells: CatD enzyme IC50 versus CatD cellular IC50; for IC50: live ARPE-19 cells, PF-7802 photoprobe 100 nM, 30 min
Experimental: ARPE-19 cells were plated at a density of 1.2 × 10^6 cells per well in six-well dishes 12–24 h before probe labelling. Culture media was removed completely and replaced with 1 ml of the appropriate serum-free media (no supplements) per well. Cells were then pretreated with test compounds at the indicated concentrations for 30 min (0.5% DMSO, 37 °C, 5% CO2). […] Ultraviolet irradiation was performed without culture plate lids for efficient irradiation, and samples were slowly rotated to prevent evaporation. After ultraviolet irradiation, cells were washed twice with Dulbecco's phosphate-buffered saline (DPBS), scraped into DPBS, centrifuged and stored as pellets at −80 °C.
Cells were lysed with sonication on ice in 70 μl DPBS and protein concentrations were determined using a BCA assay (Pierce). Total protein concentrations were then normalized to 1 mg ml^−1 in 50 μl total volume before addition of 5.5 μl click chemistry mix (1 : 3 : 1 : 0.5 volume of 50 mM CuSO4 (Sigma) in H2O : 1.7 mM TBTA (Sigma) in 4:1 t-BuOH:DMSO : 50 mM TCEP (Hampton Research) in dPBS : 10 mM TAMRA-azide (Lumiprobe) in DMSO - mixed immediately before use. Reagent solutions can be premade and stored at 4 °C except for TCEP, which should be made immediately before use). […] All fluorescence gels are presented in greyscale.
Target sequence in this assay (P07339 169-412 limits assumed): as the sequence (P07339 169-412 limits assumed) above
Target sequence in this assay (P07339 65-162 limits assumed): as the sequence (P07339 65-162 limits assumed) above

BACE2 = target: T3, BACE2 (Homo sapiens, UniProt Q9Y5Z0); test: BACE2 purified enzyme fluorescence polarization assay; format: biochemical; conditions: purified human enzyme, fluorescence polarization
T3 construct: purchased R&D Systems 4097-AS
T3 sequence (Q9Y5Z0 63-518): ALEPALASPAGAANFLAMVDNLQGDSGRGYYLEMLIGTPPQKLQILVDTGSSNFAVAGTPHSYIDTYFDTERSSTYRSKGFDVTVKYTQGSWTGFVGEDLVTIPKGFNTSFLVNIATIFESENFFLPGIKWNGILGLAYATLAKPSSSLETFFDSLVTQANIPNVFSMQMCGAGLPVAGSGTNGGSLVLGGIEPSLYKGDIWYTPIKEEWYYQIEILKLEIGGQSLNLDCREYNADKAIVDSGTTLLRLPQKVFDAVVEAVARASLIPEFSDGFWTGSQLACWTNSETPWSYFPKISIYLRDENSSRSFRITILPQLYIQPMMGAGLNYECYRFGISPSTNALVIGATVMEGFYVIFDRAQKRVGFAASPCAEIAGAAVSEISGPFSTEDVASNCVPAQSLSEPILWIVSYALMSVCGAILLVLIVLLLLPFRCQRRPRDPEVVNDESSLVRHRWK
Experimental: as §2

BACE1 [9] = target: T2, BACE1; test: BACE1 purified enzyme fluorescence polarization assay; format: biochemical; parameters: His (C); made in house; host or cells: CHO-K1
Experimental: as §2
Target sequence in this assay (P56817 46-457): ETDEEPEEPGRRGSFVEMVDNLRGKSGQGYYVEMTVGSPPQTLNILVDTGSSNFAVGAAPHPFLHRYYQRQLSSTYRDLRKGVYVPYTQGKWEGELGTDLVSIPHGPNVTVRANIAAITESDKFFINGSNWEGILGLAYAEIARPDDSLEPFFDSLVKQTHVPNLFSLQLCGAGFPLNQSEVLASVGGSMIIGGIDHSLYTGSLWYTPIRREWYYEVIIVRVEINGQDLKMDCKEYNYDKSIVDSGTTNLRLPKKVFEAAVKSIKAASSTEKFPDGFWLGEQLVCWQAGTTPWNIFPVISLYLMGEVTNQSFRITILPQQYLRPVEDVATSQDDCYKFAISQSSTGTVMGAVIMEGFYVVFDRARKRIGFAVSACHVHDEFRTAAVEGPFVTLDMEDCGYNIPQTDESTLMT

CatD in ARPE-19 cells = CatD in ARPE-19 cells (Homo sapiens, UniProt P07339); test: Live cell lysosome neutralization and PF-7802 labelling of CatD; conditions: ammonium chloride 10 mM, 2 h or bafilomycin A1 400 nM, 4 h before labelling
CatD in ARPE-19 cells, sequence (P07339 169-412 limits assumed): as the sequence (P07339 169-412 limits assumed) above
CatD in ARPE-19 cells, sequence (P07339 65-162 limits assumed): as the sequence (P07339 65-162 limits assumed) above
Experimental: Immunoblots were scanned using a LiCor Odyssey. The integrated optical density of each in-gel fluorescence band was measured using ImageJ, and normalized to the CatD heavy chain protein level, also determined in ImageJ. For imaging experiments, cells were plated on coverslips and neutralized as described above. LysoSensor DND-189 (1 μM, Thermo Scientific) was then added for 30 min, followed by a 1 h washout in fresh culture media containing the neutralization reagents. Nuclei were stained with Hoescht 33342 for 5 min (20 μM, Thermo Fisher), and cells imaged live with a Zeiss LSM 780 Laser Scanning Confocal Microscope using a W Plan-Apochromat 63 × /1.0 M27 immersion objective. A 488 nm laser (10% laser power, detection from 490 to 552 nm) and 405 nm laser (6% laser power, detection from 410 to 468 nm) were used, respective detector gains set at 700 and 878, and 12-bit images acquired. Image processing was completed in ZEN lite 2012.

[10] = 29 days, 100 mg kg-1 once daily
[11] = purified human enzyme, fluorescence polarization, peptide substrate

SMILES | BACE1 potency increase in live cells (BACE1 [5]) | CatD potency increase in live cells (CatD [8]) | IC50 (BACE2) | IC50 (CatD [4]) | IC50 (CatD [8]) | IC50 (BACE1 [9]; [11]) | IC50 (BACE1 [5]) | pKa [7] | other results
CC1(C#Cc2cnc3c(c2)[C@]2(COC(N)=N2)c2cc(-c4cccnc4F)ccc2O3)COC1 [AMG-8718, (S)-7-(2-Fluoropyridin-3-yl)-3-((3-methyloxetan-3-yl)ethynyl)-5′H-spiro[chromeno[2,3-b]pyridine-5,4′-oxazol]-2′-amine] | – | – | – | – | – | – | – | – | Ocular toxicity in preclinical animal models [1]: ocular toxicity in preclinical animal models
NC1=N[C@@]2(c3cc(NC(=O)c4ccc(F)cn4)ccc3F)COC[C@H]2CS1 [LY2886721, reference compound] | 13 x | > 15 x | – | – | – | – | – | – | Female ocular toxicity incidence (positive or negative animals / total evaluated) [2, 10]: 4/4; Female ocular toxicity outcome [2, 10]: Neg (negative (neg) if there was no ocular abnormality observed); Male ocular toxicity incidence (positive or negative animals / total evaluated) [2, 10]: 4/4; Male ocular toxicity outcome [2, 10]: Neg (negative (neg) if there was no ocular abnormality observed); Retinal finding by fluorescence microscopy ([2]; rats, 100 mg kg-1 daily, 29 days): no ocular abnormality was observed; Ocular toxicity ([2]; rats): negative for ocular toxicity; also recorded: no ocular findings; also recorded: no ocular toxicity; concentration at 29 days ([3]; 100 mg kg-1 once daily): 3480 nM; Inhibition of purified CatD (CatD [4]; purified CatD biochemical substrate assay): inactive; IC50 (CatD [6]): > 100000 nM; pKa ([7]; read-out: pKa): 7.6; CatD potency difference between cell-free enzyme and cellular assays (CatD [8]): > 15 fold
NC1=N[C@@]2(c3ccc(F)cc3F)CO[C@@H](C(=O)O)C[C@H]2[C@@H](CF)S1 [PF-2696] | – | – | > 20000 nM | > 20000 nM | > 20000 nM | – | – | – | IC50 (BACE1 [9]; purified enzyme): > 20000 nM
NC1=N[C@@]2(c3ccc(F)cc3F)CO[C@@H](c3cc(CO)no3)C[C@H]2[C@@H](CF)S1 [PF-3763] | 4.8 x | 17 x | 1600 nM | 16000 nM | 940 nM | 380 nM | 80 nM | 7.0 | –
NC1=N[C@@]2(c3ccc(F)cc3F)CO[C@@H](c3nc(CO)co3)C[C@H]2[C@@H](CF)S1 [PF-7152] | 7.2 x | 64 x | 670 nM | 37000 nM | 580 nM | 460 nM | 64 nM | 6.9 | –
C[C@H]1SC(N)=N[C@@]2(c3ccc(F)cc3F)CO[C@@H](c3cc(CO)no3)C[C@@H]12 [PF-9159] | 12 x | 150 x | – | 17000 nM | 110 nM | 210 nM | 17 nM | 7.8 | –
COc1cnc(C(=O)Nc2ccc(F)c([C@]3(C)CS(=O)(=O)N(C)C(N)=N3)c2)cn1 [SG1, reference compound] | 10 x | > 34 x | 17 nM | > 100000 nM | 2900 nM | 6 nM | 0.59 nM | – | Female ocular toxicity incidence (positive or negative animals / total evaluated) ([2]; 29 days, 60 mg kg-1 once daily): 4/4; Female ocular toxicity outcome ([2]; 29 days, 60 mg kg-1 once daily): Neg (negative (neg) if there was no ocular abnormality observed); Male ocular toxicity incidence (positive or negative animals / total evaluated) ([2]; 29 days, 60 mg kg-1 once daily): 4/4; Male ocular toxicity outcome ([2]; 29 days, 60 mg kg-1 once daily): Neg (negative (neg) if there was no ocular abnormality observed); Ocular toxicity ([2]; rats): negative for ocular toxicity; also recorded: no ocular findings; also recorded: no ocular toxicity; concentration at 29 days ([3]; 60 mg kg-1 once daily): 1560 nM; pKa ([7]; read-out: pKa): 6.9; BACE1 selectivity over CatD in cells (CatD [8]; cellular inhibition of BACE1 cleavage of APP versus inhibition of CatD labelling by PF-7802): > 2,000 fold
Cl.N [ammonium chloride] | – | – | – | – | – | – | – | – | PF-7802 labelling of CatD after lysosome neutralization (CatD in ARPE-19 cells): significantly decreased labelling of CatD
CO/C1=C\C(C)=C\[C@@H](C)[C@@H](O)[C@@H](C)C/C(C)=C/C=C/[C@H](OC)[C@@H]([C@@H](C)[C@@H](O)[C@H](C)[C@@]2(O)C[C@@H](O)[C@H](C)[C@@H](C(C)C)O2)OC1=O [bafilomycin A1] | – | – | – | – | – | – | – | – | PF-7802 labelling of CatD after lysosome neutralization (CatD in ARPE-19 cells): significantly decreased labelling of CatD
